According to patent US20200239530A1, “COMPOUNDS AND METHODS OF MODULATING PROTEIN DEGRADATION” (Vividion Therapeutics, Inc., priority 2017, published 2020):
Like-named read-outs stand apart in the source and are kept apart here. Values belong to the compound of their own block, whether it stands above or below them.

Tests used:
[1] = target: T1, AREL1 Apoptosis-resistant E3 ubiquitin protein ligase 1 (Homo sapiens, UniProt O15033); assay: Cysteine liganding, probe competition; format: binding
T1 construct: endogenous in cells
T1 sequence (O15033 1-823): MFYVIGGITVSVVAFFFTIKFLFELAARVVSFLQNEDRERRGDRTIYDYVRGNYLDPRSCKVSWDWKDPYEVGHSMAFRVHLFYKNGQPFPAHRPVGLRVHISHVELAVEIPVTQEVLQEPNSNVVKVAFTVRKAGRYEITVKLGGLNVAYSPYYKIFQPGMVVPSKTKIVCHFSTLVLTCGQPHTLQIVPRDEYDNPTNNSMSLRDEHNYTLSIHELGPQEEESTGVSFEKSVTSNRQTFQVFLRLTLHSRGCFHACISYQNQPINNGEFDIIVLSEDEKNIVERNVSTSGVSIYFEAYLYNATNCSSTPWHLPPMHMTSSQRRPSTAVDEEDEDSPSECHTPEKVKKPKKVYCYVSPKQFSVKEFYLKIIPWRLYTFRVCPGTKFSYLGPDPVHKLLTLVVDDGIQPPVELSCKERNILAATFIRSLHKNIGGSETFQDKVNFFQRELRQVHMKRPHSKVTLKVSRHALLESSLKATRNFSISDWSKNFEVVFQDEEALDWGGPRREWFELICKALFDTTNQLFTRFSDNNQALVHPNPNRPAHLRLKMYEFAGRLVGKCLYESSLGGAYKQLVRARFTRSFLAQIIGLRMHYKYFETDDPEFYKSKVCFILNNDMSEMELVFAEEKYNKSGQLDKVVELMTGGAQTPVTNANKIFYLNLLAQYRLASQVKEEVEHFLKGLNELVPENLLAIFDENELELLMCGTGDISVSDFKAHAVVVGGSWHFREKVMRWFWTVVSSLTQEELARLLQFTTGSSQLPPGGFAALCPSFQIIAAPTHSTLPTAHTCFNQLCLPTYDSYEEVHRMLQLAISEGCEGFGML
Protocol: (§1) Cells were resuspended in cold PBS on ice and sonicated with a probe sonicator to achieve lysis. 200 μL of lysate containing 5 mg/ml proteome was treated with 2 μL of 100× compound stock in a 2-mL deep-well plate. The treated lysate was subsequently incubate at 25° C. for 1 hr with shaking at 600 rpm. The treated lysate was further incubated with 2 μL of 10 mM desthiobiotin iodoacetamide probe at 25° C. for 1 hr with shaking at 600 rpm. Next, the lysate was further treat with 20 μL of solution of PBS containing 11 mM MgSO4 and 2.5% Turbonuclease stock and incubated at 25° C. for 20 minutes with shaking at 600 rpm. 1.7 mL ice-cold acetone was added to each well and incubated at −20° C. for 2 hr, followed by max speed (4200 rpm) spin for 45 min. Acetone was then decanted and the plates were blotted to remove acetone. The plates were then dried in open air for 20 minutes. After drying, the plates were then covered with foil seal and stored at −80° C. overnight.
(§2) The next day, samples were re-suspended in 90 μL of solution of 9M urea, 50 mM ammonium bicarbonate and 10 mM DTT by incubating at 65C for 20 min with shaking at 1500 rpm. Next, samples were cooled to 37° C. and then 10 μL of 500 mM iodoacetamide solution (92.48 mg/ml) was added. The samples were then incubated at 37° C. for 30 min with shaking at 600 rpm.
(§3) ZEBA desalting plates were equilibrated 4 times using 250 μL of 2M urea, 50 mM ammonium bicarbonate solution followed by centrifugation at 1500 rpm for 2 minutes. After equilibration was complete, samples were applied to ZEBA desalting plate and spin at 1500 rpm for 2 min on top of 1 mL 96-well deep-well collection plate to buffer exchange samples. 4 μL of solution containing 25 mM CaCl2 and 0.25 mg/mL trypsin was added to the plate and the plate was then incubated at 37° C. for 2 hrs with shaking at 600 rpm. 300 μL of solution containing 5% high-capacity streptavidin agarose slurry in 25 mM Tris-HCl pH 7.5, 150 mM NaCl, and 0.1% NP-40 then added. The plate was incubated at 25° C. for 2 hrs with shaking at 600 rpm. Samples were transferred to 25 μm filter plate and spin at 1000 rpm for 2 min. Samples were then washed 3 times with 0.75 mL of wash buffer (25 mM Tris-HCl pH 7.5, 150 mM NaCl, and 0.1% NP-40) followed by washing 3 times with 0.75 mL PBS, and then 4 times with 0.75 mL water. After the washing step, samples were eluted into polypropylene 96-well plate by addition of 250 µL of 50% MeCN/water, 0.1% formic acid and allowed to gravity drip for 10 min, followed by centrifugation at 1000 rpm for 2 min. Speedvac was used to dry the plates at about 45° C. for […]. Then the plates were covered with foil seal and stored at −20° C.
(§4) Samples were resuspended by addition of 20 μl of 12.5% ACN, 0.1% formic acid solution, covered with foil seal, and incubated at 42° C. for 10 minutes with shaking at 600 rpm. Then add 30 μL of 0.1% formic acid solution was added and the plate was covered and incubated at 42° C. for 10 minutes with shaking at 600 rpm. Seal plate was then sealed with a 96-well silicon mat for analysis.

[2] = target: T2, Polycomb group RING finger protein 6 (PCGF6) (Homo sapiens, UniProt Q9BYE7); assay: Cysteine liganding, probe competition; format: binding
T2 construct: Cells were resuspended in cold PBS on ice and sonicated with a probe sonicator to achieve lysis; endogenous in cells
T2 sequence (Q9BYE7 1-350): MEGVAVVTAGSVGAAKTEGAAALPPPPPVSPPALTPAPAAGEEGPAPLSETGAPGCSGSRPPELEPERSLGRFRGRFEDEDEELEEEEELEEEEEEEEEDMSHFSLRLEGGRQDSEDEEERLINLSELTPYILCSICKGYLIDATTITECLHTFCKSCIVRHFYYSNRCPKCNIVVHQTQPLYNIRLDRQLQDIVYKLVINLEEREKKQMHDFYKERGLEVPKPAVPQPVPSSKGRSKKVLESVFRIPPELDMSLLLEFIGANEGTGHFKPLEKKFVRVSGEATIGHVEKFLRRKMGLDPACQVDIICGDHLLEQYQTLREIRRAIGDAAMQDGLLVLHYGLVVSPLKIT
Protocol: as §1, §2, §3, §4

- inhibition at 100 µM ([1]; 100 uM, UniProt O15033, read-out: KB05_100 uM_percent_inhibition): 69%
- inhibition at 500 µM ([1]; 500 uM, UniProt O15033, read-out: KB05_500 uM_percent_inhibition): 92%
- KB05_500 uM_percent_inhibition ([2]; 500 uM): 48%
- inhibition at 500 µM ([2]; 500 uM, read-out: KB05_500 uM_percent_inhibition): 33%
Compound: C=CC(=O)N(c1ccccc1)c1ccc(Br)cc1 [KB05]

Compound: COc1ccc2c(c1)CCCN2C(=O)CCl [KB02]
- inhibition at 100 µM ([1]; 100 uM, UniProt O15033, read-out: KB02_100 uM_percent_inhibition): 77%
- inhibition at 500 µM ([1]; 500 uM, UniProt O15033, read-out: KB02_500 uM_percent_inhibition): 96%
- Liganded ([1]; AREL1 Res# 382, uniprot O15033): YES
- inhibition at 500 µM ([2]; 500 uM, read-out: KB02_500 uM_percent_inhibition): 37%

Compound: O=C(CCl)Nc1cc(C(F)(F)F)cc(C(F)(F)F)c1 [KBO3]
- KB03_100 uM_percent_inhibition ([1]; 100 uM, UniProt O15033): 57%
- KB03_500 uM_percent_inhibition ([1]; 500 uM, UniProt O15033): 87%
- 100 Max ([1]; uniprot O15033): 56.8
- 100 ave ([1]; uniprot O15033): 49.1
- 500 ave ([1]; uniprot O15033): 55.1
- 500 Max ([1]; uniprot O15033, unit assumed): 55.1%
- KB03_100 uM_percent_inhibition ([2]; 100 uM): 41%
